Test results reported in patent US9603833B2, “Benzene or thiophene derivative and use thereof as VAP-1 inhibitor” (R-Tech Ueno, Ltd., priority 2008, dated 2017).
pIC50: −log10 of the molar value. Where a name gives a salt, the structure may show the parent alone.

What was measured:
[1] = biological target: human VAP-1 enzyme (SSAO) (Homo sapiens (Human), UniProt Q16853); assay: Inhibitory effect on human VAP-1 enzyme (SSAO), radiochemical-enzyme assay using 14C-benzylamine; type: biochemical; conditions: human VAP-1 expressed in a cell, cell extract; 14C-benzylamine 1×10^−5 mol/L; 37° C., 2 hours
human VAP-1 enzyme (SSAO), sequence (Q16853 whole entry): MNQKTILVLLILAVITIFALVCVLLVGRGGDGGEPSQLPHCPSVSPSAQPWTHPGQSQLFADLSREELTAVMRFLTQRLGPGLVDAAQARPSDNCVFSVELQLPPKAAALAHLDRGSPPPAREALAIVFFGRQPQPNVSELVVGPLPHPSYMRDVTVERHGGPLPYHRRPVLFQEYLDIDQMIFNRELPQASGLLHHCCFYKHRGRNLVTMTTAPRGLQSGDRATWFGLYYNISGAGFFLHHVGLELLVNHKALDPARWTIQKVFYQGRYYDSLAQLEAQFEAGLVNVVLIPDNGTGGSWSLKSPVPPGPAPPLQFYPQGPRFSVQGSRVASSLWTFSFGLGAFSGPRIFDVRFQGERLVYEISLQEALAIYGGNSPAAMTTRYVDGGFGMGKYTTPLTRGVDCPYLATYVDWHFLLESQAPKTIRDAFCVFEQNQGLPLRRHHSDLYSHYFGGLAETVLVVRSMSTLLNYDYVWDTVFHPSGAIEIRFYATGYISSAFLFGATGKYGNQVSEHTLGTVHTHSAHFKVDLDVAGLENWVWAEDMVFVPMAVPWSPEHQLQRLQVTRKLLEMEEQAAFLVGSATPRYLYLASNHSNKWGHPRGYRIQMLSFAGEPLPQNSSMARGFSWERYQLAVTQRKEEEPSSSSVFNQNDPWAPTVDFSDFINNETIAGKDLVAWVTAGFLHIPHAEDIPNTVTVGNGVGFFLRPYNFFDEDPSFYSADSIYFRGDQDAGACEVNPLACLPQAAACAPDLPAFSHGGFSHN
Method: (§1) The compounds of the present invention obtained in Production Examples were examined for the inhibitory effect on human and rat VAP-1 enzyme (SSAO) by the following method.
(§2) The VAP-1 enzyme (SSAO) activity in both human and rat was measured by a radiochemical-enzyme assay using ^14C-benzylamine as an artificial substrate. Human or rat VAP-1 was cloned from the cDNA library and expressed in a cell. The cell extract was preincubated with a test compound solution (final concentration 1×10^−7-1×10^−10 mol/L) at room temperature for 20 minutes. Then, ^14C-benzylamine (final concentration 1×10^−5 mol/L) was added, and the mixture was incubated at a final volume of 200 μL at 37° C. for 2 hours. The enzyme reaction was stopped by addition of 2 mol/L (200 μL) citric acid. The oxidation product was extracted with 1 mL toluene/ethyl acetate (1:1), and the radioactivity thereof was measured by a liquid scintillation counter.

rat VAP-1 enzyme (SSAO) = rat VAP-1 enzyme (SSAO) (Rattus norvegicus (Rat), UniProt O08590); assay: Inhibitory effect on rat VAP-1 enzyme (SSAO), radiochemical-enzyme assay using 14C-benzylamine; type: biochemical; conditions: rat VAP-1 expressed in a cell, cell extract; 14C-benzylamine 1×10^−5 mol/L; 37° C., 2 hours
rat VAP-1 enzyme (SSAO), sequence (O08590 whole entry): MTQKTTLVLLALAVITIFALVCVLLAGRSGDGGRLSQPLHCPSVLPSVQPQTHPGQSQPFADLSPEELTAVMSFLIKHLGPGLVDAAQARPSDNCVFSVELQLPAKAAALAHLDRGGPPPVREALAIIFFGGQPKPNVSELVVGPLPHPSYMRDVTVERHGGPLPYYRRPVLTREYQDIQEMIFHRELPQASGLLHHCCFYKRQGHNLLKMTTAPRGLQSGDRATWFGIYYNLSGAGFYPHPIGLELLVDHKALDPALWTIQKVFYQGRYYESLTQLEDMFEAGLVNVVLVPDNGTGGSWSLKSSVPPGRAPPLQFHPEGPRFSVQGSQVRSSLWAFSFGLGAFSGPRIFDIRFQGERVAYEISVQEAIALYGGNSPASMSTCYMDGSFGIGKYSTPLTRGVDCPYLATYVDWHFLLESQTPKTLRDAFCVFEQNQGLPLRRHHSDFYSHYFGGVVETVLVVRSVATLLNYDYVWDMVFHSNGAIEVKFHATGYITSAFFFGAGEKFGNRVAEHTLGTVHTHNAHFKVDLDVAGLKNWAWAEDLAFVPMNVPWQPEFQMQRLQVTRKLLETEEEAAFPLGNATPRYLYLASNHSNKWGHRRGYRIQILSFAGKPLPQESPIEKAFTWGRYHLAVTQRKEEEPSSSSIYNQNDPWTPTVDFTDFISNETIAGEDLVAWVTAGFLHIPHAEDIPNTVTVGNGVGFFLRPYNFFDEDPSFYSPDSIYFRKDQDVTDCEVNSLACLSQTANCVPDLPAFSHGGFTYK
Method: as §1, §2

Work on `NNC(=O)Cc1ccc(CCc2ccc(N3CCOCC3)nc2)cc1` [Production Example 12, {4-[2-(6-morpholin-4-ylpyridin-3-yl)ethyl]phenyl}acetohydrazide dihydrochloride] yielded a pIC50 [1] of 7.68 and a pIC50 (rat VAP-1 enzyme (SSAO)) of 8.96.

In the case of `NNC(=O)Cc1ccc(CCc2csc(C3CCNCC3)n2)cc1` [Production Example 20, 2-{4-[2-(2-piperidin-4-yl-1,3-thiazol-4-yl)ethyl]phenyl}acetohydrazide dihydrochloride], the pIC50 [1] was 7.63 and the pIC50 (rat VAP-1 enzyme (SSAO)) was 8.29.

`CCN(CC)c1ccc(CCc2ccc(CC(=O)NN)cc2)cc1` [Production Example 30, 2-(4-{2-[4-(diethylamino)phenyl]ethyl}phenyl)acetohydrazide dihydrochloride] gave a pIC50 [1] of 7.89 and a pIC50 (rat VAP-1 enzyme (SSAO)) of 8.66.

For `NNC(=O)Cc1ccc(CCc2ccc(N3CCCC3)nc2)cc1` [Production Example 44, 2-{4-[2-(6-pyrrolidin-1-ylpyridin-3-yl)ethyl]phenyl}acetohydrazide trihydrochloride], the pIC50 [1] was 7.74 and the pIC50 (rat VAP-1 enzyme (SSAO)) was 8.27.

`NNC(=O)Cc1ccc(CCc2ccc(N3CCCCC3)nc2)cc1` [Production Example 45, 2-{4-[2-(6-piperidin-1-ylpyridin-3-yl)ethyl]phenyl}acetohydrazide trihydrochloride] was tested, and the pIC50 [1] was 7.76 and the pIC50 (rat VAP-1 enzyme (SSAO)) was 8.92.

For `CC(=O)N1CCN(c2ccc(CCc3ccc(CC(=O)NN)cc3)cn2)CC1` [Production Example 47, 2-(4-{2-[6-(4-acetylpiperazin-1-yl)pyridin-3-yl]ethyl}phenyl)acetohydrazide trihydrochloride], the pIC50 [1] was 7.79 and the pIC50 (rat VAP-1 enzyme (SSAO)) was 8.44.

`NNC(=O)Cc1ccc(CCc2ccc(N3CCNCC3)cc2C(F)(F)F)cc1` [Production Example 59, 2-(4-{2-[4-piperazin-1-yl-2-(trifluoromethyl)phenyl]ethyl}phenyl)acetohydrazide trihydrochloride] was tested, and the pIC50 [1] was 7.95 and the pIC50 (rat VAP-1 enzyme (SSAO)) was 8.21.

`NNC(=O)Cc1ccc(CCc2ccc(CN3CCOCC3)cc2)cc1` [Production Example 70, 2-(4-{2-[4-(morpholin-4-ylmethyl)phenyl]ethyl}phenyl)acetohydrazide dihydrochloride] was tested, and the pIC50 [1] was 7.75 and the pIC50 (rat VAP-1 enzyme (SSAO)) was 8.89.

With `NNC(=O)Cc1ccc(CCc2ccc(N3CCNCC3)s2)cc1` [Production Example 74, 2-{4-[2-(5-piperazin-1-ylthiophen-2-yl)ethyl]phenyl}acetohydrazide trihydrochloride] the pIC50 [1] was 7.91 and the pIC50 (rat VAP-1 enzyme (SSAO)) was 8.39.

Work on `CCN(CCN)c1ccc(CCc2ccc(CC(=O)NN)cc2)cc1` [Production Example 83, 2-[4-(2-{4-[(2-aminoethyl)(ethyl)amino]phenyl}ethyl)phenyl]acetohydrazide trihydrochloride] yielded a pIC50 [1] of 7.69 and a pIC50 (rat VAP-1 enzyme (SSAO)) of 8.24.

Compound `CCN(CC)c1ccc(CCc2ccc(CC(=O)NN)cc2)cn1` [Production Example 85, 2-(4-{2-[6-(diethylamino)pyridin-3-yl]ethyl}phenyl)acetohydrazide trihydrochloride] has a pIC50 [1] of 7.80 and a pIC50 (rat VAP-1 enzyme (SSAO)) of 8.72.

`NNC(=O)Cc1ccc(CCc2ccc(N3CCNCC3)cn2)cc1` [Production Example 86, 2-{4-[2-(5-piperazin-1-ylpyridin-2-yl)ethyl]phenyl}acetohydrazide tetrahydrochloride] gave a pIC50 [1] of 8.01 and a pIC50 (rat VAP-1 enzyme (SSAO)) of 9.00.

`CCN(CC)c1ccc(CCc2ccc(CC(=O)NN)cc2)nc1` [Production Example 88, 2-(4-{2-[5-(diethylamino)pyridin-2-yl]ethyl}phenyl)acetohydrazide trihydrochloride] gave a pIC50 [1] of 7.99 and a pIC50 (rat VAP-1 enzyme (SSAO)) of 9.05.

`CCN(C)c1ccc(CCc2ccc(CC(=O)NN)cc2)cn1` [Production Example 89, 2-[4-(2-{6-[ethyl(methyl)amino]pyridin-3-yl}ethyl)phenyl]acetohydrazide trihydrochloride] gave a pIC50 [1] of 7.81 and a pIC50 (rat VAP-1 enzyme (SSAO)) of 9.05.

Compound `CCCN(C)c1ccc(CCc2ccc(CC(=O)NN)cc2)cn1` [Production Example 90, 2-[4-(2-{6-[methyl(propyl)amino]pyridin-3-yl}ethyl)phenyl]acetohydrazide trihydrochloride] has a pIC50 [1] of 7.66 and a pIC50 (rat VAP-1 enzyme (SSAO)) of 8.85.

With `CCCN(CCC)c1ccc(CCc2ccc(CC(=O)NN)cc2)cn1` [Production Example 92, 2-(4-{2-[6-(dipropylamino)pyridin-3-yl]ethyl}phenyl)acetohydrazide trihydrochloride] the pIC50 [1] was 7.69 and the pIC50 (rat VAP-1 enzyme (SSAO)) was 9.10.

With `NNC(=O)Cc1ccc(CCc2csc(N3CCNCC3)n2)cc1` [Production Example 95, 2-{4-[2-(2-piperazin-1-yl-1,3-thiazol-4-yl)ethyl]phenyl}acetohydrazide dihydrochloride] the pIC50 [1] was 8.20 and the pIC50 (rat VAP-1 enzyme (SSAO)) was 8.46.

`CC(=O)N1CCN(c2ccc(CCc3ccc(CC(=O)NN)cc3)nn2)CC1` [Production Example 99, 2-(4-{2-[6-(4-acetylpiperazin-1-yl)pyridazin-3-yl]ethyl}phenyl)acetohydrazide trihydrochloride] was tested, and the pIC50 [1] was 7.87 and the pIC50 (rat VAP-1 enzyme (SSAO)) was 8.60.

Compound `CC(=O)N1CCN(c2cnc(CCc3ccc(CC(=O)NN)cc3)cn2)CC1` [Production Example 101, 2-(4-{2-[5-(4-acetylpiperazin-1-yl)pyrazin-2-yl]ethyl}phenyl)acetohydrazide trihydrochloride] has a pIC50 [1] of 8.47 and a pIC50 (rat VAP-1 enzyme (SSAO)) of 8.68.

`NNC(=O)Cc1ccc(CCc2cncc(N3CCNCC3)c2)cc1` [Production Example 102, 2-{4-[2-(5-piperazin-1-ylpyridin-3-yl)ethyl]phenyl}acetohydrazide tetrahydrochloride] showed a pIC50 [1] of 7.71 and a pIC50 (rat VAP-1 enzyme (SSAO)) of 8.03.

With `NNC(=O)Cc1ccc(CCc2cc(N3CCNCC3)ncn2)cc1` [Production Example 106, 2-{4-[2-(6-piperazin-1-ylpyrimidin-4-yl)ethyl]phenyl}acetohydrazide tetrahydrochloride] the pIC50 [1] was 7.72 and the pIC50 (rat VAP-1 enzyme (SSAO)) was 8.12.

In the case of `CC(=O)N1CCN(c2ccc(CCc3ccc(COC(=O)NN)cc3)nc2)CC1` [Production Example 108, 4-{2-[5-(4-acetylpiperazin-1-yl)pyridin-2-yl]ethyl}benzyl hydrazinecarboxylate trihydrochloride], the pIC50 [1] was 9.05 and the pIC50 (rat VAP-1 enzyme (SSAO)) was 9.10.

In the case of `CC(=O)N1CCN(c2ccc(CCc3ccc(CNC(=O)NN)cc3)nc2)CC1` [Production Example 109, N-(4-{2-[5-(4-acetylpiperazin-1-yl)pyridin-2-yl]ethyl}benzyl)hydrazinecarboxamide trihydrochloride], the pIC50 [1] was 8.43 and the pIC50 (rat VAP-1 enzyme (SSAO)) was 8.85.

For `CC(=O)N1CCN(c2ccc(CCc3ccc(OC(=O)NN)cc3)nc2)CC1` [Production Example 110, 4-{2-[5-(4-acetylpiperazin-1-yl)pyridin-2-yl]ethyl}phenyl hydrazinecarboxylate trihydrochloride], the pIC50 [1] was 8.46 and the pIC50 (rat VAP-1 enzyme (SSAO)) was 8.80.

`CC(=O)N1CCN(c2ccc(CCc3cccc(COC(=O)NN)c3)nc2)CC1` [Production Example 111, 3-{2-[5-(4-acetylpiperazin-1-yl)pyridin-2-yl]ethyl}benzyl hydrazinecarboxylate trihydrochloride] showed a pIC50 [1] of 9.30 and a pIC50 (rat VAP-1 enzyme (SSAO)) of 9.40.

With `CC(=O)N1CCN(c2ccc(CCc3cccc(CNC(=O)NN)c3)nc2)CC1` [Production Example 112, N-(3-{2-[5-(4-acetylpiperazin-1-yl)pyridin-2-yl]ethyl}benzyl)hydrazinecarboxamide trihydrochloride] the pIC50 [1] was 9.15 and the pIC50 (rat VAP-1 enzyme (SSAO)) was 9.15.

`CC(=O)N1CCN(c2ccc(CCc3ccc(COC(=O)NN)cc3F)nc2)CC1` [Production Example 113, 4-{2-[5-(4-acetylpiperazin-1-yl)pyridin-2-yl]ethyl}-3-fluorobenzyl hydrazinecarboxylate trihydrochloride] showed a pIC50 [1] of 9.05 and a pIC50 (rat VAP-1 enzyme (SSAO)) of 9.15.

`CC(=O)N1CCN(c2ccc(CCc3ccc(CNC(=O)NN)cc3F)nc2)CC1` [Production Example 114, N-(4-{2-[5-(4-acetylpiperazin-1-yl)pyridin-2-yl]ethyl}-3-fluorobenzyl)hydrazinecarboxamide trihydrochloride] gave a pIC50 [1] of 8.70 and a pIC50 (rat VAP-1 enzyme (SSAO)) of 8.92.

`CC(=O)N1CCN(c2ccc(CCc3ccc(CCOC(=O)NN)s3)nc2)CC1` [Production Example 115, 2-(5-{2-[5-(4-acetylpiperazin-1-yl)pyridin-2-yl]ethyl}thiophen-2-yl)ethyl hydrazinecarboxylate] gave a pIC50 [1] of 8.40 and a pIC50 (rat VAP-1 enzyme (SSAO)) of 8.00.

For `CC(=O)N1CCN(c2ccc(CCc3ccc(C(=O)NN)s3)nc2)CC1` [Production Example 116, 5-{2-[5-(4-acetylpiperazin-1-yl)pyridin-2-yl]ethyl}thiophene-2-carbohydrazide], the pIC50 [1] was 8.02 and the pIC50 (rat VAP-1 enzyme (SSAO)) was 8.01.

Work on `CC(=O)N1CCN(c2ccc(CCc3ccc(CCNC(=O)NN)s3)nc2)CC1` [Production Example 117, N-[2-(5-{2-[5-(4-acetylpiperazin-1-yl)pyridin-2-yl]ethyl}thiophen-2-yl)ethyl]hydrazinecarboxamide] yielded a pIC50 [1] of 7.73 and a pIC50 (rat VAP-1 enzyme (SSAO)) of 8.57.

In the case of `CC(=O)N1CCN(c2ccc(CCc3ccc(CCC(=O)NN)cc3)nc2)CC1` [Production Example 119, 3-(4-{2-[5-(4-acetylpiperazin-1-yl)pyridin-2-yl]ethyl}phenyl)propanehydrazide trihydrochloride], the pIC50 [1] was 8.33 and the pIC50 (rat VAP-1 enzyme (SSAO)) was 8.06.

Work on `CC(=O)N1CCN(c2ccc(CCc3ccc(CC(=O)NN)s3)nc2)CC1` [Production Example 120, 2-(5-{2-[5-(4-acetylpiperazin-1-yl)pyridin-2-yl]ethyl}thiophen-2-yl)acetohydrazide] yielded a pIC50 [1] of 8.43 and a pIC50 (rat VAP-1 enzyme (SSAO)) of 9.22.
